From patent US20140051685A1, “THERAPEUTIC TREATMENT FOR METABOLIC SYNDROME, TYPE 2 DIABETES, OBESITY OR PREDIABETES” (priority 2010, published 2014)

Experiments:
[1] = tested on: female ob/ob obese diabetic mice; experiment: Bromocriptine plus GBR 12909 in ob/ob mice; format: in vivo; conditions: BC 10 mg/kg, GBR 12909 20 mg/kg, daily 14 days, relative to vehicle, FIG. 10
Experimental: The effects of adding GBR (a selective dopamine reuptake inhibitor) to bromocriptine (a dopamine D2 receptor agonist that can reduce central norepinephrine neuronal activity) in an effort to circumvent the impact of the D2 receptor agonist effect to reduce endogenous dopamine and to therefore improve metabolic disorders was examined in ob/ob mice treated with either vehicle, bromocriptine (BC) (10 mg/kg), GBR 12909 (20 mg/kg) or bromocriptine (10 mg/kg) plus GBR 12909 (20 mg/kg). Female ob/ob obese diabetic mice were fed standard chow and different groups of animals (n=5-7 group) were treated daily for 14 days with bromocriptine (to reduce norepinephrine neuronal activity) (10 mg/kg), GBR 12909 (to increase dopaminergic neuronal activity) (20 mg/kg) or with bromocriptine (10 mg/kg) plus GBR 12909 (20 mg/kg), or vehicle. […] BC had no effect on blood glucose level.

[2] = tested on: mice fed a high fat diet for 20 weeks; experiment: Bromocriptine plus GBR 12909 in mice fed a high fat diet; format: in vivo; conditions: BC 5 mg/kg, GBR 12909 5 mg/kg
Experimental: The effects of adding GBR (a selective dopamine reuptake inhibitor) to bromocriptine (a dopamine D2 receptor agonist that can reduce central norepinephrine neuronal activity) in an effort to circumvent the impact of the D2 receptor agonist effect to reduce endogenous dopamine and to therefore improve metabolic disorders was examined in mice fed a high fat diet for 20 weeks and then treated with either vehicle, bromocriptine (BC) (5 mg/kg), GBR 12909 (5 mg/kg) or bromocriptine (5 mg/kg) plus GBR 12909 (5 mg/kg). […] Again, increasing central dopaminergic neuronal activity and decreasing central norepinephrine neuronal activity simultaneously produces synergistic reductions in metabolic disorders. […] BC alone had no effect on plasma insulin level (FIG. 21).

Structure (SMILES): CC(C)C[C@H]1C(=O)N2CCC[C@H]2[C@]2(O)O[C@](NC(=O)[C@@H]3C=C4c5cccc6[nH]c(Br)c(c56)C[C@H]4N(C)C3)(C(C)C)C(=O)N12 [bromocriptine]
- blood glucose level [1]: no effect
- plasma insulin level ([2]; FIG. 21): no effect
- HOMA-IR (insulin resistance) ([2]; FIG. 22): no significant effect
